Peptide text beside a SMILES is read from it.
Tested on: rat erythrocytes
Assay: Cytotoxicity to rat erythrocytes (hemolysis, absorbance 550 nm)
Type: cell-based
Conditions: for % 렛 적혈구 파괴능: 37 ℃, 30 min, 0.1 % Triton X-100 = 100 %

SMILES	% 렛 적혈구 파괴능 (12.5 ㎍/ml peptide)	% 렛 적혈구 파괴능 (25 ㎍/ml peptide)	% 렛 적혈구 파괴능 (50 ㎍/ml peptide)	% 렛 적혈구 파괴능 (100 ㎍/ml peptide)	% 렛 적혈구 파괴능 (200 ㎍/ml peptide)	erythrocyte lysis, result in words (concentrations up to 200 ㎍/ml)	cytotoxicity to erythrocytes, result in words (even at low concentrations)
CC[C@H](C)[C@H](NC(=O)[C@H](Cc1ccccc1)NC(=O)[C@H](Cc1ccccc1)NC(=O)[C@H](CC(C)C)NC(=O)[C@H](CCCCN)NC(=O)[C@H](CC(N)=O)NC(=O)[C@H](CCCCN)NC(=O)[C@H](Cc1c[nH]c2ccccc12)NC(=O)[C@H](Cc1ccccc1)NC(=O)[C@@H](N)CCSC)C(=O)N[C@H](C(=O)N[C@@H](CCCCN)C(=O)N[C@@H](CCCCN)C(N)=O)C(C)C [Teleogryllusine 3, MFWKNKLFFIVKK-NH2] (H-MFWKNKLFFIVKK-NH2)	0%	0.09%	0.28%	0%	1.22%	파괴능이 미미함	–
CC[C@H](C)[C@H](NC(=O)CN)C(=O)NCC(=O)N[C@@H](C)C(=O)N[C@H](C(=O)N[C@@H](CC(C)C)C(=O)N[C@@H](CCCCN)C(=O)N[C@H](C(=O)N[C@@H](CC(C)C)C(=O)N[C@H](C(=O)N[C@H](C(=O)NCC(=O)N[C@@H](CC(C)C)C(=O)N1CCC[C@H]1C(=O)N[C@@H](C)C(=O)N[C@@H](CC(C)C)C(=O)N[C@H](C(=O)N[C@@H](CO)C(=O)N[C@@H](Cc1c[nH]c2ccccc12)C(=O)N[C@H](C(=O)N[C@@H](CCCCN)C(=O)N[C@@H](CCCNC(=N)N)C(=O)N[C@@H](CCCCN)C(=O)N[C@@H](CCCNC(=N)N)C(=O)N[C@@H](CCC(N)=O)C(=O)N[C@@H](CCC(N)=O)C(N)=O)[C@@H](C)CC)[C@@H](C)CC)[C@@H](C)O)[C@@H](C)O)C(C)C)C(C)C [멜리틴]	75.8%	83.1%	89.8%	88.3%	91.4%	–	높은 세포 독성
